# According to patent US20170234881A1, “METHODS OF DIAGNOSING AND TREATING CANCER” (INSERM ( INSTITUT NATIONAL DE LA SANTÉ ET DE LA RECHERCHE …, priority 2014, published 2017):
# Key:
# TS/A tumors = assay: Growth of TS/A tumors implanted s.c. into mice; assay type: in vivo; settings: after 13 days, s.c. every day, Tam 56 mg/kg or DDA 20 mg/kg alone
# Description: FIG. 2. OCDO is a tumor promoter in vitro and in vivo and its inhibition contributes to the anti-tumor effects of Tam and DDA. (A, B) Histograms representing the effect of OCDO or 17β-estrogen (E2) on MCF7 (A) and TS/A (B) cell proliferation after 24 h treatment using a colorimetric immunoassay measuring BrDU incorporation in DNA (C, D) Histogram representing the effect of OCDO on MCF7 (C) and TS/A (D) cell invasion. Data are the mean of three separate experiments (±s.e.m), *P<0.05, **P<0.01, ***P<0.001 (Student's t-test). (E, F) Mice were implanted s.c. with MCF7 (E) or TS/A (F) cells and animals (8 per group) were treated s.c. every day starting on the day of implantation with either the solvent vehicle or OCDO (16 μg/kg for MCF7 or 50 μg/kg for TS/A). Animals were monitored for tumour growth twice a week. The data are representative of three independent experiments. The mean tumor volume±s.e.m is shown, *P<0.05, **P<0.01, ***P<0.001 (analysis of variance (ANOVA), Dunnett's post test). (G) Mean (±s.e.m) of Ki67 positive cell number determined from IHC staining of MCF7 tumor sections from (E), n=8, *P<0.05 (Student's t-test) using HistoQuant, Pannoramic Viewer (3DHistech). (H) Representative Ki67 staining of TS/A tumor sections from (F) showing increased staining in OCDO-treated tumor compared with control-treated tumor. (I, J, K). Murine E0771(I), or human MDA-MB231 (J) or MDA-MB468 (K) cells implanted s.c. into mice (8 per group) and animals were treated s.c. with either the solvent vehicle or OCDO (16 μg/kg for MDA-MB-231 and MDA-MB-468 or 50 μg/kg for E0771). The data are representative of two independent experiments. Statistical analysis was performed as in E and F. (L) Mice were implanted s.c. with TS/A cells and animals (8 per group) were treated s.c. every day with either the solvent vehicle, OCDO (50 μg/kg), Tam (56 mg/kg), DDA (20 mg/kg) or the combination of Tam (56 mg/kg) +OCDO (50 μg/kg) or DDA (20 mg/kg)+OCDO (50 μg/kg). The data are representative of three independent experiments. Statistical analysis was performed as in E and F.
# Exponentially growing MCF7, ShMCF7, E0771, MDA-MB231, MDA-MB468 and TS/A cells were collected, washed twice in PBS and resuspended in PBS. TS/A and E9771 tumours were prepared by subcutaneous transplantation of 35×10^3 cells or 3×10^5 cells respectively in 100 μl PBS into the flank of BALB/c or C57B16 mice. For other tumors, 5 to 10×10^6 cells in 200 μl PBS/matrigel (1/1) were injected into the flank of NMRI nude mice. Animals were treated as indicated in the legends. Animals were examined daily, and body weights were measured twice per week. In all the experiments, the tumor volume was determined by direct measurement with a caliper and was calculated using the formula (width^2×length)/2. Tumors were either frozen in liquid nitrogen or fixed in 10% neutral-buffered formalin and embedded in paraffin for immunohistochemical analysis. Paraffin sections were stained with haematoxylin and eosin for histomorphological analyses. Immunohistochemical staining was done on paraffin-embedded tissue sections, using a specific Ki67 antibody (Dako).
# We then assayed the anti-growth effect of Tam or DDA against TS/A tumors in the absence and presence of OCDO. As above, TS/A tumors implanted into immunocompetent mice were treated s.c. every day either with either the solvent vehicle (control), OCDO (50 μg/kg), Tam (56 mg/kg), DDA (20 mg/kg) or the combination of Tam (56 mg/kg)+OCDO (50 μg/kg) or DDA (20 mg/kg) +OCDO (50 μg/kg).
# shHSD2 MCF7 cells = assay: Proliferation of shHSD2 MCF7 cells (BrDU); assay type: cell-based, human; settings: sh11HSD2 MCF7 cells, 24 h; OCDO 5 μM; cortisone increasing concentrations
# Description: FIG. 7. Knock-down of 11βHSD2 decreases cell proliferation, invasion and survival in MCF7 cells as well as tumor growth and OCDO reverses these effects. shC or shHSD2 MCF7 cells were analyzed as followed: (A) The proliferation of sh-C or shHSD2 cells treated or not with OCDO 5 μM 24 h was measured using quantification of DNA BrDU incorporation as described in FIG. 2A. (B) The proliferation of sh-C or shHSD2 cells treated or not with increasing concentration of cortisone for 24 h was measured as in (A). (C) The invasiveness of sh-C or shHSD2 cells treated or not with OCDO 5 μM for 72 h was assayed using matrigel-coated filters. (D) the formation of colony by sh-C or shHSD2 cells treated or not with OCDO 1 μM was quantified as described in FIG. 6F. […] Animals were monitored for tumor growth twice a week. […] (F) Mean (±s.e.m) of Ki67 positive cell number determined from IHC staining of shC or shHSD2 MCF7 tumor sections from (E), n=8, *P<0.05 (Student's t-test) using HistoQuant, Pannoramic Viewer (3DHistech).
# MCF7 or HEK293T cells (5×10^6 cells) were transfected with 5 μg of the indicated plasmid using the NEON Transfection System and according to the manufacturer's recommendations. […] Several clones were analyzed by immunoblot analysis and real time RT-qPCR for the knock down of the expression of the protein of interest. […]
SMILES,inhibition of TS/A tumor growth compared with the control group (TS/A tumors) [%],effect on the inhibition of cell proliferation induced by 11βHSD2 knock-down (shHSD2 MCF7 cells)
"CC(C)CCCC(C)[C@H]1CCC2C3C[C@@H](NCCc4cnc[nH]4)[C@@]4(O)C[C@@H](O)CC[C@]4(C)C3CC[C@@]21C (stereo partly drawn) [DDA, 5-hydroxy-6-[2-(1H-imidazol-4-yl)ethylamino]cholestan-3-ol, reference compound]",33,–
"CC/C(=C(\c1ccccc1)c1ccc(OCCN(C)C)cc1)c1ccccc1 [Tam, (Z)-2-[4-(1,2-diphenylbut-1-enyl)phenoxy]-N,N-dimethylethanamine, reference compound]",31,–
"C[C@]12CCC(=O)C=C1CC[C@@H]1[C@@H]2C(=O)C[C@@]2(C)[C@H]1CC[C@]2(O)C(=O)CO [cortisone, reference compound]",–,did not
